Reference: the METLIN SMRT retention time set (Domingo-Almenara et al. 2019)

Assay: gradient 5% acetonitrile 3 min, to 50% in 2 min, to 85% in 15 min, held 3 min, 100 µL/min
Settings: column: Zorbax Extend-C18 2.1 x 50 mm; eluents: water / acetonitrile, 0.1% formic acid
Outline: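 The system's dead and dwell volumes were 40 μL and 900 μL, with a Zorbax Extend-C18 column (2.1 × 50 mm, 1.8 μm) run at 100 μL/min in water and acetonitrile containing 0.1% formic acid each. Pure standards were analyzed in mixtures of ~100 molecules by HPLC–quadrupole time-of-flight mass spectrometry in positive and negative ionization mode. Retention time was assigned from computationally picked, manually inspected adduct peaks.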

Cc1ccccc1-c1noc(Cn2ccn3nc(-c4ccc5c(c4)OCO5)cc3c2=O)n1
RP-LC retention time: 1040 s

C[C@H]1CN(C(=O)c2ccc(F)cc2)C[C@@H]1c1nc(-c2ccccc2)no1
RP-LC retention time: 996 s

CCNC(=O)CCc1nc2ccccc2n(CC(=O)NCc2ccc(OC)cc2)c1=O
RP-LC retention time: 700 s

COc1ccc(C(O)CN2CCN(c3ccccc3F)CC2)cc1OC (stereo not given)
RP-LC retention time: 642 s

COc1ccc(CNc2nc3ccncc3n(C(C)C)c2=O)c(OC)c1
RP-LC retention time: 681 s

N#CCCSc1ccccc1NC(=O)c1ccc(S(=O)(=O)N2CCCCCC2)cc1
RP-LC retention time: 946 s

Cn1c(=O)c2nc(S(=O)(=O)CCC(=O)Nc3ccc(Cl)cc3F)n(C)c2n(C)c1=O
RP-LC retention time: 781 s

O=S(=O)(Cc1cccc(F)c1)NCC1CCN(Cc2ccsc2)CC1
RP-LC retention time: 578 s

Cc1ccc(NC(=O)N2CC(c3nc(CCOCC4CC4)no3)C2)cc1C
RP-LC retention time: 863 s

CCC1Oc2ccc(S(=O)(=O)N3CCC(C(=O)N(C)c4cccc(C)c4)CC3)cc2NC1=O (stereo not given)
RP-LC retention time: 872 s

CCn1c(C(=O)NCc2ccccc2OC)cc2sc(Cl)cc21
RP-LC retention time: 1130 s

O=C(NCC1CN(c2ccccc2)C(=O)O1)Nc1ccccc1Cl (stereo not given)
RP-LC retention time: 776 s

COc1ccccc1-c1csc(NC(=O)c2sc(C)nc2C)n1
RP-LC retention time: 900 s

CCN1C(=O)COc2ccc(-c3noc(Cc4cccc(OC)c4)n3)cc21
RP-LC retention time: 1000 s

CCOc1ccccc1N1CCN(S(=O)(=O)c2nn(CC)cc2C(=O)NCCC(C)C)CC1
RP-LC retention time: 1130 s

COc1ccc(-c2nnc(-c3ccc(C)c(S(=O)(=O)NCc4cccs4)c3)o2)cc1OC
RP-LC retention time: 917 s

CC(C)NC(=O)C1CCCN(c2nc3ncn(CC(=O)Nc4ccc5c(c4)OCO5)c(=O)c3s2)C1 (stereo not given)
RP-LC retention time: 678 s

O=C(NCc1ccc(F)cc1)C1CCCN(c2nnc3ccc(Cl)cn23)C1 (stereo not given)
RP-LC retention time: 749 s

CCCCOC(=O)CSc1nnc(-c2ccc(Br)cc2)o1
RP-LC retention time: 1190 s

COC(=O)CN1C(=O)Nc2ccc(C)cc2C1c1ccccc1 (stereo not given)
RP-LC retention time: 840 s

CCN1CCN(CCCNC(=O)C2=Cc3cc(OC)ccc3OC2)CC1
RP-LC retention time: 578 s

O=C(Nc1ccc(Cn2cncn2)cc1)c1ccc(Br)o1
RP-LC retention time: 708 s

CC(C)C(=O)N1CCN(c2nc(CN3CCOCC3)cs2)CC1
RP-LC retention time: 569 s

CC(C)CNC(=O)N1CC(c2nc(-c3ccccc3)no2)C2(CCOCC2)C1 (stereo not given)
RP-LC retention time: 858 s

O=C(CCc1c[nH]c2ccccc12)N1CC(n2cc(COCC3CC3)nn2)C1
RP-LC retention time: 719 s

CCCn1c(=O)sc2cc(S(=O)(=O)N3CCC(C(=O)N4CCN(CC)CC4)CC3)ccc21
RP-LC retention time: 640 s

CC(C)CCNC(=O)C1(C)Cn2nc(C(=O)NCc3ccccc3)cc2C(=O)N1C (stereo not given)
RP-LC retention time: 712 s

COCc1cc(=O)n2c(n1)N(Cc1ccccc1F)CC2
RP-LC retention time: 660 s

O=C(c1ccc2c(c1)CCCN2S(=O)(=O)c1ccc(Cl)cc1)N1CCOCC1
RP-LC retention time: 880 s

COCCn1cc(CCNC(=O)Nc2ccccc2Br)c2cccnc21
RP-LC retention time: 763 s

Cc1ccc(F)c(NC(=O)c2c(O)c3cccnc3n(-c3ccc(F)cc3)c2=O)c1
RP-LC retention time: 1140 s

CCCOCCOC(=O)C1=C(C)NC2=C(C(=O)C(C(=O)OC)C(C)C2)C1c1cccc(F)c1 (stereo not given)
RP-LC retention time: 965 s

CN1CCN(C(=O)c2cc3n(n2)CC(C)(C(=O)NCc2ccccc2)N(C)C3=O)CC1 (stereo not given)
RP-LC retention time: 572 s

CCCCc1ccc(NC(=O)CSc2cc(N3CCC(C(=O)NCC)CC3)ncn2)cc1
RP-LC retention time: 871 s

CCn1c(=O)oc2cc(-c3noc(-c4ccc(C)cc4)n3)ccc21
RP-LC retention time: 1060 s

CC(=O)c1ccc(S(=O)(=O)N2CCC[C@@H]2C(=O)NCc2csc(C)n2)cc1
RP-LC retention time: 677 s

CCOc1ccc(C(=O)NC(C(=O)Nc2nc3ccccc3[nH]2)C(C)C)cc1OCC (stereo not given)
RP-LC retention time: 735 s

CC(C)(C)c1csc(-c2csc(S(=O)(=O)Nc3cccc(Cl)c3F)c2)n1
RP-LC retention time: 1330 s

CCOC(=O)c1ccc2nc(NC(=O)C3CCCCN3S(C)(=O)=O)sc2c1 (stereo not given)
RP-LC retention time: 839 s

Cc1ncc2c(n1)C[C@@H]1CC[C@H]2N1C(=O)Nc1ccc(F)cc1F
RP-LC retention time: 649 s

O=C(CCC1CCCCC1)Nc1nc(-c2ccc3c(c2)NC(=O)CO3)cs1
RP-LC retention time: 1020 s

CCOc1cc(C(=O)Nc2ccc(-c3cn4cccnc4n3)cc2)cc(OCC)c1OCC
RP-LC retention time: 759 s

Cc1ccc2[nH]cc(CCN3CC(C(=O)Nc4ccc(F)c(Cl)c4)CC3=O)c2c1 (stereo not given)
RP-LC retention time: 899 s

CCCCOC(=O)c1[nH]c2c(c1C)C(=O)CC(c1cc(OC)c(OC)c(OC)c1)C2 (stereo not given)
RP-LC retention time: 1020 s

COc1ccc(OCC(=O)Nc2ccc3c(c2)N(C(C)=O)CCC3)cc1
RP-LC retention time: 782 s

CCS(=O)(=O)N1CC(=O)N(c2cc(C)ccc2C)C(C)(C(=O)NCc2ccccc2)C1 (stereo not given)
RP-LC retention time: 807 s

O=c1ccc(N2CCCN(S(=O)(=O)c3ccc(F)c(Cl)c3)CC2)nn1-c1ccccc1
RP-LC retention time: 911 s

O=C(Nc1c(-c2ccc(F)cc2)nc2ccccn12)c1cccc(Cl)c1
RP-LC retention time: 750 s

CCOC(=O)c1noc2ncnc(Nc3ccccc3CC)c12
RP-LC retention time: 948 s

CCn1c(CCNC(=O)c2cccc(N(C)C)c2)nc2cccnc21
RP-LC retention time: 586 s

CCC(=O)c1ccc(OCC(O)CN(CC)Cc2ccccc2)cc1 (stereo not given)
RP-LC retention time: 566 s

CCCCOc1ccc(-c2cc3c4nn(CC(=O)NC5CCCC5)c(=O)n4ccn3n2)cc1
RP-LC retention time: 1050 s

Cc1sc(C)c(S(=O)(=O)N2CCCCCC2)c1-c1cc(C(F)(F)F)on1
RP-LC retention time: 1200 s

CCC(C)NC(=O)Cn1ccn2nc(-c3ccc(F)cc3)c(CO)c2c1=O (stereo not given)
RP-LC retention time: 725 s

O=C(NCc1ccc2c(c1)OCO2)C(=O)NCC1(CO)CC1
RP-LC retention time: 627 s

Fc1cccc(-c2nc(-c3ccnc(N4CCOCC4)c3)no2)c1
RP-LC retention time: 967 s

CNC(=O)C1CCCN(c2nc3ncn(CC(=O)Nc4ccc(F)cc4F)c(=O)c3s2)C1 (stereo not given)
RP-LC retention time: 635 s

Cc1nc(-c2ccc(N3CCN(S(=O)(=O)c4cccnc4)CC3)nc2)no1
RP-LC retention time: 680 s

NC(=O)C1CCN(C(=O)CCCc2nc3cccnc3n2Cc2ccc(F)cc2)CC1
RP-LC retention time: 602 s

NS(=O)(=O)c1ccc(NC(=O)CN2C(=O)c3ccccc3C2=O)cc1
RP-LC retention time: 623 s

CCOC(=O)C1=C(C)NC2=C(C(=O)C(C(=O)OC)C(C)C2)C1c1ccccc1OC (stereo not given)
RP-LC retention time: 849 s

Cc1ccc(NC(=O)N2CCC(c3cc(N)on3)CC2)c(Cl)c1
RP-LC retention time: 736 s

O=C(CNC(=O)C(c1ccccc1)c1ccccc1)NCC(=O)N1CCCc2ccccc21
RP-LC retention time: 875 s

COc1cc(NC(=O)COc2nc(C)nc3ccccc23)cc(OC)c1OC
RP-LC retention time: 649 s

COc1cc2c(cc1OC)C(C(=O)Nc1ccc(F)cc1F)C(c1cccs1)N(C)C2=O (stereo not given)
RP-LC retention time: 827 s
